Tests used:
[1] = molecular target: T1, Catenin beta-1/Cadherin-1 (Homo sapiens, UniProt P35222); assay: Inhibition of full length beta-catenin (1 to 686 residues) (unknown origin) expressed in Escherichia coli BL21 (DE3)/N-terminal biotinylated human E-cadherin (824 to 877 residues) protein-protein interaction incubated for 2 hr by Alphascreen assay
T1 sequence (P35222 whole entry): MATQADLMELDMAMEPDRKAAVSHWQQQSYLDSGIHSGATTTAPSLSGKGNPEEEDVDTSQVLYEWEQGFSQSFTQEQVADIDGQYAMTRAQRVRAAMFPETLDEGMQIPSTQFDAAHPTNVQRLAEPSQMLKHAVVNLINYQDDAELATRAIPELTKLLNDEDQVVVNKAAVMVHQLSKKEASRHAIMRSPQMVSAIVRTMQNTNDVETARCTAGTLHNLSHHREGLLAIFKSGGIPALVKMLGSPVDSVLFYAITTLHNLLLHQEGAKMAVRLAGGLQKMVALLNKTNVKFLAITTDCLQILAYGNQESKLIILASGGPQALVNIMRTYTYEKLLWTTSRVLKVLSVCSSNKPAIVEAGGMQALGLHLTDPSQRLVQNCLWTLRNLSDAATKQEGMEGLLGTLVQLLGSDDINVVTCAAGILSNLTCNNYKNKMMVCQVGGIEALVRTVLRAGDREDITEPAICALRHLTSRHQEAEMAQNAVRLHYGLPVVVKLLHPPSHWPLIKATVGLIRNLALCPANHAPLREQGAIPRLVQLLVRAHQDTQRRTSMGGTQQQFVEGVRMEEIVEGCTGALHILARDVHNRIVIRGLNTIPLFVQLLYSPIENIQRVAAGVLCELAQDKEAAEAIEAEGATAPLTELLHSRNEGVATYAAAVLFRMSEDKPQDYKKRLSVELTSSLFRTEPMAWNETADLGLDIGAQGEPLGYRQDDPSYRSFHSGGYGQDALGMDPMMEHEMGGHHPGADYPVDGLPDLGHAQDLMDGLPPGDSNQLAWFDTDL
T1 sequence (P12830 whole entry): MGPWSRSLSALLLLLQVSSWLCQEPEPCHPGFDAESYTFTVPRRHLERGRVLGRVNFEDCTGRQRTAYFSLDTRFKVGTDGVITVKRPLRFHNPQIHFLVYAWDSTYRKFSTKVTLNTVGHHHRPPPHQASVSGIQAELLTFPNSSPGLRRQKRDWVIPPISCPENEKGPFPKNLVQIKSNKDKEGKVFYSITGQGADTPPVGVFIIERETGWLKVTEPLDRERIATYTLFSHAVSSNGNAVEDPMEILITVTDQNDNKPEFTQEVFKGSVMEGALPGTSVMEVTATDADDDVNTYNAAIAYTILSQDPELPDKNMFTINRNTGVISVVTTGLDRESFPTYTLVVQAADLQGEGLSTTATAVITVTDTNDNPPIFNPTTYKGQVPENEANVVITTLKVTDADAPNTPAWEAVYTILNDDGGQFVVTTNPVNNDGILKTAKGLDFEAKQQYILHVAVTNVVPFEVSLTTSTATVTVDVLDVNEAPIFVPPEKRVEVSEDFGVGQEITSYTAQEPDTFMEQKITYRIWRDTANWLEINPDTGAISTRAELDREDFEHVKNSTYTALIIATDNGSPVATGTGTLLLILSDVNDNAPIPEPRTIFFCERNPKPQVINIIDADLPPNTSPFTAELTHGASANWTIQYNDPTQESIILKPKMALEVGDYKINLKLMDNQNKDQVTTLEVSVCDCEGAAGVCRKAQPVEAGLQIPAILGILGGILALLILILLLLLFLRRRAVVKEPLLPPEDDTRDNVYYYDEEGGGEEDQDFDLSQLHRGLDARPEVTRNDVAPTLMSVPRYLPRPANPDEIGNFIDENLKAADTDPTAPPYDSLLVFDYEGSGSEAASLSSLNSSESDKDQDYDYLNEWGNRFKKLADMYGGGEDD

MDA-MB-231 = assay: Antiproliferative activity against beta-catenin signalling overexpressing human MDA-MB-231 cells assessed as reduction in cell growth incubated for 72 hrs by MTS assay; assay type: functional, cell-based; conditions: MDA-MB-231, 72 h
SW480 = assay: Antiproliferative activity against beta-catenin signalling overexpressing human SW480 cells assessed as reduction in cell growth incubated for 72 hrs by MTS assay; assay type: functional, cell-based; conditions: SW480, 72 h

In the case of `CC(C)(C)C1CCC(c2cc(C(=O)N3CCC(Oc4cc(N5CCNCC5)ccc4C#N)CC3)ccc2O[C@H]2CCNC2)CC1.Cl.Cl` (mixture of isomers; cis), the Kd [1] is reported as 80 µM, the IC50 (MDA-MB-231) is reported as 4.1 µM and the IC50 (SW480) is reported as 6.2 µM.
